Results as given in patent US6461611B1, “Agents for the prevention of damages caused by stress conditions” (Hadasit Medical Research Services & Development Limited, priority 1998, dated 2002).

Legend:
ThR mRNA = assay: Northern blot of ThR mRNA level in neonatal rat ventricular myocytes under normal conditions or hypoxia; format: cell-based
Method: RNA was prepared using TRI-Reagent (Molecular Research Center, Inc. Cincinnati) according to the manufacturer's instructions. […] For the detection of ThR a 250 nucleotide PCR product was used. The membrane was washed twice for 30 mins. at room temperature with 1×SSC containing 0.1% SDS and twice for 30 mins. at 55° C. with 0.1×SSC, containing 0.1% SDS. The blots were exposed for 2-4 days at −70° C. and the relative amounts of mRNA transcripts were analyzed by laser densitometry using an Ultrascan XL Enhanced Laser Densitometer and normalized relative to an internal β-actin controls.
Primary cultures of neonatal rat ventricular mycocytes were subjected to hypoxia conditions (0% oxygen, 20 torr), and the level of ThR transcripts were compared to the level of the receptor transcripts in cells under normal oxygen levels (21% oxygen). […] The 4.1 kb mRNA was detected following hybridization with full length ThR cDNA and the intensity of the bands was quantitated by densitometry and normalized to the actin transcript levels.
The level of ThR mRNA following hypoxia, in the presence of α-thrombin was also determined. For this, rat ventricular myocytes were subjected to serum free conditions and α-thrombin (5×10^−8M) was added for a period of 48 hours and the level of ThR was determined.
Therefore the effect of interruption of the signaling cascase on the protection effect was analyzed. For this, calphostin C, a protein kinase C (PKC) inhibitor was added during the activation of ThR with TRAP.

myocytes = assay: LDH activity released into the medium of normal and hypoxic myocytes; format: cell-based, rat; conditions: calphostin C 10 nM or 100 nM in the presence and absence of TRAP (10 μM)
Method: FIG. 4B. LDH levels were measured in the medium of normal (A,B,E,G) and hypoxic (C,D,F,H) myocytes. TRAP (10 μM) was added (for 48 h) to normal cells (B,E,G) or prior to subjecting the cells to hypoxia (D,F,H). Cells were treated with calphostin C at 10 nM (E,F) or 100 nM (G,H). LDH levels were determined at 340 nm.
Cell viability under hypoxia conditions was measured by lactate dehydrogenase (LDH) assay of the medium by using diagnostic kit according to the manufacturer's instructions (Sigma, St. Louis, Mo.). Released LDH is a stable enzymatic marker that correlates with cell viability. Total LDH activity was determined in culture medium plus LDH released from the cells after treatment with 0.5% Triton X-100. All results are expressed as mean±SEM of triplicate sample (I—Weiscner, M S et al., 1998. Induction of endothelial cell PAS domain protein-1 by hypoxia: characterization and comparison with hypoxia-inducible factor-1-alpha. Blood, 92(7);2260-8. II—Brooks et al., 1998. Modulation of VEGF production by pH and glucose in retinal muller cells. Curr. Eye Res., 17(9):875-882).

calphostin C
protection of ThR transcript level under hypoxia by TRAP (ThR mRNA; hypoxia, TRAP activated ThR in the presence of calphostin C (1 nM, 100 nM)): showed no longer the protection | level of ThR mRNA (ThR mRNA; normal conditions, calphostin C 200 nM): did not affect | level of ThR transcripts (ThR mRNA; normal conditions, calphostin C (1 nM and 100 nM) added together with TRAP (1 μM)): did not affect | stressed hypoxic conditions as observed by the released LDH activity (myocytes): did not affect the stressed hypoxic conditions
